The values that follow come from ChEMBL document CHEMBL1144048, “Facile preparation of new 4-phenylamino-3-quinolinecarbonitrile Src kinase inhibitors via 7-fluoro intermediates: identification of potent 7-amino analogs” (Bioorg Med Chem, 2008).

As usually defined, the IC50 is the concentration at which inhibition is half-maximal. Usually inhibition stands for the drop in the measured response relative to a control, in per cent. The term inhibition in vivo denotes the change of the read-out against control, counted positive when it falls. High values mean strong suppression, low ones little suppression. What is called solubility is how much of the substance goes into solution per volume. A lower solubility goes with a poorly soluble substance.

Series [1] is described as follows: Inhibition of human cSrc-vSrc fusion protein expressed in rat fibroblast cells by ELISA. The format is cell-based. Background: In an ELISA, binding on a coated surface is turned into a signal by an enzyme label.
Series [2] can be described thus: Permeability across artificial membrane by PAMPA. The format is ADME. The conditions noted are these: read-out: permeability.
Series [3] can be described thus: Drug level in nude mouse plasma at 50 mg/kg, po after 4 hrs. The format is ADME, organism-based. Set-up: dose 50 mg/kg, route oral.
Another series deals with CYP3A4 (Homo sapiens, UniProt P08684). As to the kind of experiment: Inhibition of CYP3A4 at 3 uM. The format is ADME.
For a further series, the system named is HT-29. The experiment in a line: Inhibition of tumor growth in human HT29 cells xenografted nude mouse at 150 mg/kg, po OD after 14 days relative to control. The format is functional. The conditions noted are these: HT-29, 336 h. Background: A xenograft is tissue or cells of one species grown in another, often human tumour cells in immunodeficient mice.
Series [4] is described as follows: Drug level in nude mouse plasma at 50 mg/kg, po after 8 hrs. Set-up: dose 50 mg/kg, route oral. The format is ADME, organism-based.
The next series has as its target CYP2C9 (Homo sapiens, UniProt P11712). As to the kind of experiment: Inhibition of CYP2C9 at 3 uM. The format is ADME.
Another series addresses CYP2D6 (Homo sapiens, UniProt P10635). As to the kind of experiment: Inhibition of CYP2D6 at 3 uM. The format is ADME.
Series [5] can be described thus: Stability in mouse plasma after 300 mins. The format is ADME, cell-free. The conditions noted are these: read-out: Stability.
A short description of series [6]: Drug level in nude mouse plasma at 50 mg/kg, po after 24 hrs. The format is ADME, organism-based. The arrangement: dose 50 mg/kg, route oral.
A short description of series [7]: Solubility at pH 7.4. The conditions noted are these: buffer. The format is physicochemical.

Structures are written as SMILES. In brackets after ≈: the same amount, converted by molar mass. A value given as a limit tells only on which side of the number the result lay.

Sequence of CYP2D6 (P10635 whole entry): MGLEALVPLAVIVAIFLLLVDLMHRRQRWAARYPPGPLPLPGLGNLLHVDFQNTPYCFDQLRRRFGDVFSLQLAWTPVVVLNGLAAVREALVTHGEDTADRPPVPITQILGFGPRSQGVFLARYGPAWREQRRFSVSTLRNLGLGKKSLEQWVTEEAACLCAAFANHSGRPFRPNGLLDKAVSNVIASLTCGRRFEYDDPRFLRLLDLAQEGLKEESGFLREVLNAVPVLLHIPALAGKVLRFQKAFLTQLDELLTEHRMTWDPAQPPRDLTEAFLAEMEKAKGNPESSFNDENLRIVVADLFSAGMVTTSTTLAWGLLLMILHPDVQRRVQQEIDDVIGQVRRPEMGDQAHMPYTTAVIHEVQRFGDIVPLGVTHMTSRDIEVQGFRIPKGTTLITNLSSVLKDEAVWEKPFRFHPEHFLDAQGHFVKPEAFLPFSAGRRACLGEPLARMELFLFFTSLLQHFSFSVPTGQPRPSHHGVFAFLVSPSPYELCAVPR
Sequence of CYP3A4 (P08684 whole entry): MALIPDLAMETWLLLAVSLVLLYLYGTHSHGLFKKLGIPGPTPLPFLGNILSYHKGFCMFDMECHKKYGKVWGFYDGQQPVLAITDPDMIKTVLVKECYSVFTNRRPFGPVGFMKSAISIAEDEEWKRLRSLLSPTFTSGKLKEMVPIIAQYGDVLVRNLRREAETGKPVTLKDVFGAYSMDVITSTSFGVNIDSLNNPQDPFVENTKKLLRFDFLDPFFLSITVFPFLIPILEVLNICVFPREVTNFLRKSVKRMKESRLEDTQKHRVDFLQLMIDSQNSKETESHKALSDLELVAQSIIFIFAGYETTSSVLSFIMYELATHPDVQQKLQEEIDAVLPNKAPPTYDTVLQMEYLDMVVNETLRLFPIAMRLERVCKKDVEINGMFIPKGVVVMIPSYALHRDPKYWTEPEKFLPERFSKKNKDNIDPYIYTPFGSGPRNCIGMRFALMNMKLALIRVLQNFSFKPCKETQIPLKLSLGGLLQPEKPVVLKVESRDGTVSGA
Sequence of CYP2C9 (P11712 whole entry): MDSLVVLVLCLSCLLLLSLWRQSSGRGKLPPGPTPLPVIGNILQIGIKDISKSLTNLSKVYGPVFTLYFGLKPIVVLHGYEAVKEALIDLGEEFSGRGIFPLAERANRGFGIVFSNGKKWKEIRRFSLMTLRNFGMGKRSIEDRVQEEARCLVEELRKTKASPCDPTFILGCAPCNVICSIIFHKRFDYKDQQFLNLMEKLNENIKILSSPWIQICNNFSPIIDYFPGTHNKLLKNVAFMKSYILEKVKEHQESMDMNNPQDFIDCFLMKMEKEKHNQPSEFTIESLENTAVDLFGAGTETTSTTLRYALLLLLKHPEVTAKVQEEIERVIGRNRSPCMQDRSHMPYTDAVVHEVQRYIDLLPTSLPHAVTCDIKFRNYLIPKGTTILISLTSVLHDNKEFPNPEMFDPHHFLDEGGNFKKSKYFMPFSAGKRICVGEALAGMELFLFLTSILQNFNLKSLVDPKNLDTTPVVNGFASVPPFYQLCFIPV

`COc1cc(Nc2c(C#N)cnc3cc(N(C)CCCN(C)C)c(OC)cc23)c(Cl)cc1Cl`: the half-maximal inhibitory concentration (IC50) in series [1] came to 2700 nM.
Still for that read-out and setting: the same measure for `COc1cc(Nc2c(C#N)cnc3cc(OCCCN4CCN(C)CC4)ccc23)c(Cl)cc1Cl`: 710 nM.
`COc1cc(Nc2c(C#N)cnc3cc(NCCCN4CCN(C)CC4)c(OC)cc23)c(Cl)cc1Cl`: the Papp in [2] was determined as 10.7 ×10⁻⁶ cm/s. For the same compound, the concentration at 4 h in series [3] was found to be 790 ng/mL. Also, the IC50 in series [1] turned out to be 360 nM. In addition, the inhibition at 3 µM at CYP3A4, at CYP2C9 and against CYP2D6 was below 34% each time. Besides, the inhibition in vivo at 150 mg/kg in the series with HT-29 was 63%. This compound returned a concentration at 8 h in [4] of 520 ng/mL. Also, the remaining at 5 h in series [5] was above 70%. In series [6], this compound gave a concentration at 24 h of 100 ng/mL. Further, the solubility in series [7] amounted to 32 µg/mL (≈ 60.4 µM).
Regarding `COCCOc1cc2ncc(C#N)c(Nc3cc(OC)c(Cl)cc3Cl)c2cc1OC`, the IC50 in [1] came out at 190 nM.
The same measure, in the same setting: as for `COCCOc1ccc2c(Nc3ccc(Cl)cc3Cl)c(C#N)cnc2c1`, the figure is above 10000 nM; as for `COCCNc1cc2ncc(C#N)c(Nc3cc(OC)c(Cl)cc3Cl)c2cc1OC`, 1500 nM.
Compound `COc1cc(Nc2c(C#N)cnc3cc(OCCCN4CCN(C)CC4)c(OC)cc23)c(Cl)cc1Cl` [BOSUTINIB] yielded a concentration at 4 h in series [3] of 1060 ng/mL. In series [1], this compound displayed an IC50 of 100 nM. Further, the inhibition in vivo at 150 mg/kg in the series on HT-29 stood at 50%. The concentration at 24 h in series [6] came out at 47 ng/mL.
Compound `COCCOc1ccc2c(Nc3cc(OC)c(Cl)cc3Cl)c(C#N)cnc2c1` returned an IC50 in series [1] of 1600 nM.
`COc1cc(Nc2c(C#N)cnc3cc(NCCCN(C)C)c(OC)cc23)c(Cl)cc1Cl`: in [2], the Papp stood at 7.3 ×10⁻⁶ cm/s. The concentration at 4 h in series [3] was 610 ng/mL. In series [1], this compound displayed an IC50 of 300 nM. In addition, the inhibition at 3 µM against CYP3A4, on CYP2C9 and on CYP2D6 was below 34% throughout. This compound also returned an inhibition in vivo at 150 mg/kg in the series on HT-29 of 75%. The concentration at 8 h in [4] amounted to 410 ng/mL. Moreover, the remaining at 5 h in series [5] was above 70%. Further, the concentration at 24 h in series [6] worked out at 80 ng/mL. The solubility in series [7] is above 100 µg/mL.
With `CCOc1cc2c(Nc3cc(OC)c(Cl)cc3Cl)c(C#N)cnc2cc1OCCCN1CCN(C)CC1`, half-maximal inhibition in series [1] (IC50) was put at 85 nM.
`CCOc1cc2c(Nc3cc(OC)c(Cl)cc3Cl)c(C#N)cnc2cc1OCCOC`: the midpoint of inhibition in series [1], the IC50, lay at 180 nM.
`COc1cc(Nc2c(C#N)cnc3cc(NCCCN4CCOCC4)c(OC)cc23)c(Cl)cc1Cl` had an IC50 in [1] of 390 nM.
